Data published in patent US9573954B2, “Pyrazolopyrimidine compounds” (University Health Network, priority 2012, dated 2017).
Where two headings read alike, the source gives them in different places.

Legend:
human TTK = biological target: T1, human TTK (Homo sapiens, UniProt P33981); assay: TTK inhibition assay (indirect ELISA); format: biochemical
T1 construct: Active TTK was purchased from Invitrogen as an amino terminal GST fusion of full length human TTK; purchased Invitrogen
T1 sequence (P33981 1-857): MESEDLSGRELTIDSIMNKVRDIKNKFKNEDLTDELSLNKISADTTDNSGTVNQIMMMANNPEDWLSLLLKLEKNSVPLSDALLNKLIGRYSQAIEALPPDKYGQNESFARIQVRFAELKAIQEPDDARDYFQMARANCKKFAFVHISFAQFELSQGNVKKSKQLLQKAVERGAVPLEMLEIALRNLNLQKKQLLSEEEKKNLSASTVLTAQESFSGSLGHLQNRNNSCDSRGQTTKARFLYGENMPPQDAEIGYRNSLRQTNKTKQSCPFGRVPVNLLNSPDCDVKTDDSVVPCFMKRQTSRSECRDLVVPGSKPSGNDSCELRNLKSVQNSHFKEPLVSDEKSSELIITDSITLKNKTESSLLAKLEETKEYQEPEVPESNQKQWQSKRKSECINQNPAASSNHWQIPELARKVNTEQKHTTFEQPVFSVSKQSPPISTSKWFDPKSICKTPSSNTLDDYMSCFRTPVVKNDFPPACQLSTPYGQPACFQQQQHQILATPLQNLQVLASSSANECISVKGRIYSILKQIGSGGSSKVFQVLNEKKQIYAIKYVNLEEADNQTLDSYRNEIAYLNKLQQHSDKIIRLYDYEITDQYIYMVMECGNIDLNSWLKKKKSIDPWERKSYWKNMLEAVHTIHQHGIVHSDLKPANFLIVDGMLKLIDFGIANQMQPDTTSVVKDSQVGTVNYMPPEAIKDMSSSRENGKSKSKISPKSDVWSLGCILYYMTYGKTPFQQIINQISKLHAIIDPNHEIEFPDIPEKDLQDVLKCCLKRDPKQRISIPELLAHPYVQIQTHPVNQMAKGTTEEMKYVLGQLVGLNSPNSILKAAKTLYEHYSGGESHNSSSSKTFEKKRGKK
Summary of the method: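 Activity detected by indirect ELISA after compounds sat with full-length GST-TTK for 5 min prior to starting the reaction with ATP. IC50 came from a four-parameter logistic curve of % inhibition, calculated against background and uninhibited control wells.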

[1] = test system: ovarian cancer cells (OVCAR-3); assay: Cancer cell line growth inhibition, Sulforhodamine B assay, OVCAR-3; format: cell-based; conditions: read-out: Cancer Cell Line GI50 Range OVCAR-3
Summary of the method: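 OVCAR-3 cells were seeded 24 h before compound addition, then exposed for 5 days to final concentrations of 10 nM to 50 μM in DMEM with 10% FBS. Growth was measured by TCA fixation and sulforhodamine B staining with absorbance at 570 nm. Inhibition was relative to DMSO-only cells, and GI50 came from curve fitting.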

[2] = test system: colon cancer cells (HCT116); assay: Cancer cell line growth inhibition, Sulforhodamine B assay, HCT116; format: cell-based; conditions: read-out: Cancer Cell Line GI50 Range HCT116
Summary of the method: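 GI50 is calculated from growth inhibition relative to DMSO controls, using TCA-fixed, SRB-stained protein mass read at 570 nm. Compound, 10 nM–50 μM final in 10% FBS DMEM, was applied for 5 days to HCT116 cells that had been plated 24 h before at 1000–4000/well.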

[3] = test system: breast cancer cells (MDA-MB-468); assay: Cancer cell line growth inhibition, Sulforhodamine B assay, MDA-MB-468; format: cell-based; conditions: read-out: Cancer Cell Line GI50 Range MDA-MB-468
Summary of the method: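 Sulforhodamine B staining (TCA-fixed, read at 570 nm) estimates cell mass after 5-day compound treatment of MDA-MB-468 cells, final concentrations 10 nM to 50 μM in 10% FBS DMEM. GI50 derived from growth inhibition versus DMSO controls.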

[4] = 100 μM ATP, read-out: TTK IC50 Range
[5] = Homo sapiens, OVCAR-3, OVCAR-3 ovarian cancer cell line
[6] = Homo sapiens, HCT-116, HCT116 colon cancer cell line
[7] = Homo sapiens, MDA-MB-468, MDA-MB-468 breast cancer cell line

| SMILES | IC50 (human TTK; [4]) [nM] | GI50 [1, 5] [nM] | GI50 [2, 6] [nM] | GI50 [3, 7] [nM] | IC50 (human TTK; 16 μM ATP (Sigma cat# A7699), read-out: TTK IC50 Range (denoted with an asterisk)) [nM] | GI50 ([1]; OVCAR-3 ovarian cancer cell line) [nM] | GI50 ([2]; HCT116 colon cancer cell line) [nM] | GI50 ([3]; MDA-MB-468 breast cancer cell line) [nM] |
| --- | --- | --- | --- | --- | --- | --- | --- | --- |
| O=C(NC1CC1)c1ccc(-c2cnn3c(NCCN4CCOCC4)cc(Oc4cccc(F)c4F)nc23)cc1Cl [Example C33, 2-chloro-N-cyclopropyl-4-(5-(2,3-difluorophenoxy)-7-((2-morpholinoethyl)amino)pyrazolo[1,5-a]pyrimidin-3-yl)benzamide] | < 100 | ≤ 100 | ≤ 100 | ≤ 100 |  |  |  |  |
| Cc1cc(-c2cnn3c(NC[C@H]4C[C@@H](O)C4)cc(Oc4cccnc4)nc23)ccc1C(=O)NC1CC1 [Example C159] | < 100 | ≤ 100 | ≤ 100 | ≤ 100 |  |  |  |  |
| Cc1cc(-c2cnn3c(NC[C@@H]4CCOC4)cc(N[C@H]4CCCC[C@H]4O)nc23)ccc1C(=O)NC1CC1 [Example C36, N-cyclopropyl-4-(5-(((1S,2R)-2-hydroxycyclohexyl)amino)-7-((((S)-tetrahydrofuran-3-yl)methyl)amino)pyrazolo[1,5-a]pyrimidin-3-yl)-2-methylbenzamide] | < 100 | ≤ 100 | ≤ 100 | ≤ 100 |  |  |  |  |
| COC[C@@H](Nc1cc(NCC2CCOCC2)n2ncc(-c3ccc(C(=O)NC4CC4)c(C)c3)c2n1)C(C)C [Example C104] | < 100 | 100 to 500 | ≤ 100 | 100 to 500 |  |  |  |  |
| Cc1cc(-c2cnn3c(NCC4CCOCC4)cc(N4CCOC[C@H]4CO)nc23)ccc1C(=O)NC1CC1 [Example C87] | < 100 | > 500 | 100 to 500 | 100 to 500 |  |  |  |  |
| Cc1cc(-c2cnn3c(NCC4CCOCC4)cc(NC4(CO)CC4)nc23)ccc1C(=O)NC1CC1 [Example C139] | < 100 | 100 to 500 | 100 to 500 | 100 to 500 |  |  |  |  |
| Cc1cc(-c2cnn3c(NCC4CCOCC4)cc(N[C@@H](CO)C(C)C)nc23)ccc1C(=O)NC1CC1 [Example C121] | < 100 | > 500 | 100 to 500 | 100 to 500 |  |  |  |  |
| CC(=O)Nc1cccc(Oc2nc(NCC3CCOCC3)n3ncc(-c4ccc(C(=O)NC5CC5)c(C)c4)c3n2)c1 [Example C19] |  | > 500 | > 500 | 100 to 500 | < 100 |  |  |  |
| COCCNc1cc(N[C@H]2CCCC[C@H]2O)nc2c(-c3ccc(C(=O)NC4CC4)c(C)c3)cnn12 [Example C108] | < 100 | ≤ 100 | ≤ 100 | 100 to 500 |  |  |  |  |
| Cc1cc(-c2cnn3c(NCC4CC4)cc(Oc4cccnc4)nc23)ccc1C(=O)NC1CC1 [Example C152] | < 100 | ≤ 100 | ≤ 100 | ≤ 100 |  |  |  |  |
| CC[C@H](Nc1cc(NC[C@@H]2CCOC2)n2ncc(-c3ccc(C(=O)NC4CC4)c(C)c3)c2n1)[C@H](C)O [Example C134] | < 100 | 100 to 500 | 100 to 500 | 100 to 500 |  |  |  |  |
| Cc1cc(-c2cnn3c(NCC4(F)CCN(C)CC4)cc(Oc4cccnc4)nc23)ccc1C(=O)NC1CC1 [Example C147] | < 100 | > 500 | 100 to 500 | 100 to 500 |  |  |  |  |
| Cc1cc(-c2cnn3c(NCC4(O)CCOCC4)cc(NC4CCOCC4)nc23)ccc1C(=O)NC1CC1 [Example C94] | < 100 | > 500 | > 500 | > 500 |  |  |  |  |
| Cc1cc(-c2cnn3c(NCC4(CO)CCOCC4)cc(Oc4cccnc4)nc23)ccc1C(=O)NC1CC1 [Example C99] | < 100 | > 500 | 100 to 500 | > 500 |  |  |  |  |
| Cc1cc(-c2cnn3c(NCCN4CCC(F)CC4)cc(Oc4cccc(F)c4F)nc23)ccc1C(=O)NC1CC1 [Example C47, N-cyclopropyl-4-(5-(2,3-difluorophenoxy)-7-((2-(4-fluoropiperidin-1-yl)ethyl)amino)pyrazolo[1,5-a]pyrimidin-3-yl)-2-methylbenzamide] | < 100 | ≤ 100 | ≤ 100 | ≤ 100 |  |  |  |  |
| Cc1cc(-c2cnn3c(NCC4CCOCC4)cc(N[C@H]4CCC[C@@H]4O)nc23)ccc1C(=O)NC1CC1 [Example C126] | < 100 |  |  |  |  | ≤ 100 | ≤ 100 | ≤ 100 |
| Cc1cc(-c2cnn3c(NCC4(F)CCNCC4)cc(OC4CCCC4)nc23)ccc1C(=O)NC1CC1 [Example C173] | < 100 | > 500 | 100 to 500 | > 500 |  |  |  |  |
| Cc1cc(-c2cnn3c(NCC4(F)CCN(C)CC4)cc(NC4CCCC4)nc23)ccc1C(=O)NC1CC1 [Example C170] | < 100 | > 500 | 100 to 500 | 100 to 500 |  |  |  |  |
| Cc1cc(-c2cnn3c(NCC4CCOCC4)cc(Nc4cccnc4)nc23)ccc1C(=O)NC1CC1 [Example C59] | < 100 | 100 to 500 | 100 to 500 | 100 to 500 |  |  |  |  |
| Cc1cc(-c2cnn3c(NCC4CCOCC4)cc(N[C@H](C(N)=O)C(C)C)nc23)ccc1C(=O)NC1CC1 [Example C111] | < 100 | 100 to 500 | 100 to 500 | 100 to 500 |  |  |  |  |
| Cc1cc(-c2cnn3c(NCC4CCOCC4)cc(N4C5CCC4CC(O)C5)nc23)ccc1C(=O)NC1CC1 (stereo not shown) [Example C66] | < 100 | 100 to 500 | 100 to 500 | 100 to 500 |  |  |  |  |
| Cc1cc(-c2cnn3c(NCC4(CO)CCOCC4)cc(NC4CCCC4)nc23)ccc1C(=O)NC1CC1 [Example C92] | < 100 | > 500 | 100 to 500 | > 500 |  |  |  |  |
| Cc1cc(-c2cnn3c(NCC4CCOCC4)cc(NCC4CC4)nc23)ccc1C(=O)NC1CC1 [Example C103] | < 100 | 100 to 500 | ≤ 100 | 100 to 500 |  |  |  |  |
| Cc1cc(-c2cnn3c(NCC4CCOCC4)cc(NCC4COC4)nc23)ccc1C(=O)NC1CC1 [Example C71] | < 100 | > 500 | 100 to 500 | 100 to 500 |  |  |  |  |
| Cc1cc(-c2cnn3c(NCCN4CCOCC4)cc(Oc4ccc(F)cc4)nc23)ccc1C(=O)NC1CC1 [Example C181] | < 100 | 100 to 500 | ≤ 100 | 100 to 500 |  |  |  |  |
